{"source": "patent US20060211673A1", "about": "“Modulation of neurodegenerative diseases through the estrogen receptor” (ALSGEN, LLC, priority 2005, published 2006)", "key": {"SOD-1 protein": {"system": "SOD-1 protein", "experiment": "SOD-1 ELISA on lysates of HeLa cells after 72 hours of incubation with drug", "assay_type": "cell-based, human", "protocol": "Briefly, cells were maintained in Dulbecco's Minimal Essential Medium, with high glucose, supplemented with glutamine, 4 mM, certified fetal bovine serum, 10%, and penicillin, streptomycin, and nystatin (all from Invitrogen). Incubation conditions were 37 degrees and 99% relative humidity, with CO2 at 5%. Cultures were passaged when they reached 90% confluence. For pharmacological experiments, cells were plated into sterile tissue culture treated 96 well plates at a density of 3,500 cells/well in 150 μl medium. After plating and 6 hours for attachment, drugs were added to the medium in a concentration of 10 μM. Following 72 hours of incubation with the drugs, the cells were photographed at 100× using an inverted microscope and digital camera, so that cytotoxicity could be evaluated. After photodocumentation, the medium was removed and the cells were washed once with phosphate buffered saline, and then 50 μl molecular biology grade water containing a protease inhibitor cocktail was added. After 10 min incubation, the plates were placed in −80 degrees to induce complete lysis. Plates were then thawed and 25 μl was transferred from each well into a maxsorp ELISA plate coated with anti-human SOD-1 antibody, which contained 75 μl phosphate buffered saline. A second antibody pair (a polyclonal anti-SOD-1/HRP conjugated goat anti-rabbit) was then added to the well, and incubation was conducted for 1 hour at room temperature. At the conclusion of the incubation, the plate was washed three times (wash buffer from KPL Inc.) and Sure Blue Reserve HRP Substrate was added. […] The plate was then shaken gently for 5 seconds and the absorbance at 450 mn read on a Tecan Plate reader. Absorbance from each sample were compared to standard curve of purified recombinant human SOD-1 assayed on the same ELISA plate, and SOD-1 immunoreactivity (ng/ml) was estimated by comparison with the standard curve. […] The total protein of the lysates was determined by Bradford assay as described in Example 1 (iv). […]"}, "HeLa cells": {"system": "HeLa cells", "experiment": "Bradford total protein assay of HeLa lysates (check for cytotoxic effects)", "assay_type": "cell-based, human", "conditions": "72 hours", "protocol": "To determine if decrements found in the SOD-1 assay were simply the result of cytotoxic effects of the drug treatment, total protein was determined for each well. While the ELISA incubation was ongoing, 10 μl of the remaining lysate was removed from each well and placed into another empty plate, and BioRad Bradford reagent (100 μl) was added to the protein. After a 15 min incubation at room temperature the plate was shaken gently for 5 seconds and the absorbance was read at 595 nm in a Tecan Sunrise plate reader. Protein concentrations in each well were thus determined by comparison with protein standards that were run on the same plate.\nFollowing 72 hours of incubation with the drugs, the cells were photographed and processed as described in Example 1 (iii). The total protein of the lysates was determined by Bradford assay as described in Example 1 (iv). […] This reduction was dose related and maximal by 3 μM, with an IC50 of 2 μM."}, "SOD-1 mRNA": {"system": "SOD-1 mRNA", "experiment": "SOD-1 mRNA by RT-PCR in blood of the SOD-93A murine model for ALS", "assay_type": "in vivo", "conditions": "SOD-93A mice, ip 1 or 10 mg/kg for 14 days, lymphocyte/blood samples, p<0.05, FIG. 2", "protocol": "The effects of the estrogen receptor modulating agent (e.g., Estradiol), and analogs thereof described in Examples 2 were tested in vivo in the SOD-93A murine model for ALS, and a reduction in SOD-1 levels was measured. The inhibition of RNA expression was monitored by isolated blood samples from a mouse pre- and post introduction of the compound (estradiol benzoate) using standard RT-PCR techniques. The expression of the SOD-1 protein was determined using Western blot techniques with an anti-SOD-1 antibody from Sigma. […] The results are shown as a % of internal control, 18S rRNA."}}, "data": [{"compound": "CCCCC(=O)O[C@H]1CC[C@H]2[C@@H]3CCc4cc(O)ccc4[C@H]3CC[C@]12C", "note": "[estradiol valerate]", "values": [{"measurement": "levels of SOD-1 protein", "setting": "SOD-1 protein; 72 hours, FIG. 1", "result": "reduction"}]}, {"compound": "C[C@]12CC[C@@H]3c4ccc(O)cc4CC[C@H]3[C@@H]1CC[C@@H]2O", "note": "[Estradiol]", "values": [{"measurement": "concentration at which reduction of SOD-1 protein is maximal", "setting": "SOD-1 protein; 72 hours, dose related", "result": "≤ 3", "unit": "µM"}, {"measurement": "IC50", "setting": "SOD-1 protein; drug added to culture medium 72 hours before harvest, read-out: IC50 of reduction of SOD-1 protein levels", "result": 2000, "unit": "nM"}, {"measurement": "total protein levels", "setting": "HeLa cells", "result": "unaffected"}]}, {"compound": "C[C@]12CC[C@@H]3c4ccc(OC(=O)c5ccccc5)cc4CC[C@H]3[C@@H]1CC[C@@H]2O", "note": "[estradiol benzoate]", "values": [{"measurement": "SOD-1 mRNA (% of internal control, 18S rRNA)", "setting": "SOD-1 mRNA", "result": "decreased"}]}]}
